Data: patent publication US11685710B2, “Cationic sulfonamide amino lipids and amphiphilic zwitterionic amino lipids” (The Board of Regents of the University of Texas System, priority 2016, dated 2023)
“Also recorded” adds a separate entry of the source.

Tests used:
[1] = test system: HeLa-Luc-Cas9 cells; assay: sgRNA delivery to HeLa-Luc-Cas9 cells (luciferase editing, ONE-Glo+Tox); assay type: cell-based
Protocol: sgRNA delivery to HeLa-Luc-Cas9 cells: Select ZALs were evaluated in the delivery of single guide RNA (sgRNA) to HeLa-Luc-Cas9 cells. In a white opaque 96-well plate tissue culture plate, HeLa-Luc-Cas9 cells were seeded at a density of 5×10^3 cells per well in 100 μL growth medium (DMEM without phenol red, 5% FBS), and allowed to attach overnight and then supplemented with an additional 100 μL DMEM. ZALs-sgRNA nanoparticles were formulated using the in vitro nanoparticle formulation protocol at the indicated lipid composition and weight ratio (maintaining 50:38.5 ZAL:cholesterol mole ratio, tuningPEG-lipid additive from 5% to 0.5%, and tuning weight ratio from 20:1 ZAL:sgRNA to 5:1 ZAL:sgRNA). Luciferase deletion was evaluated using a single guide RNA designed against luciferase using the CRISPR.mit.edu algorithm, while non-targeting control sgRNA (sgScr) was used as a negative control. The nanoparticles were added to the cells at a dose of 50 ng sgRNA per well and incubated with the cells for 24 h or 48 h. RNAiMax (Invitrogen) formulated according to the manufacturer's protocol with sgLuc or sgScr was used as a positive control. After 24 h or 48 h, the cell viability and luciferase expression were evaluated with the ONE-Glo+Tox Assay cell viability and luciferase assay (Promega).
Select ZALs were evaluated in the delivery of single guide RNA (sgRNA) to HeLa-Luc-Cas9 cells. In a white opaque 96-well plate tissue culture plate, HeLa-Luc-Cas9 cells were seeded at a density of 5×10^3 cells per well in 100 μL growth medium (DMEM without phenol red, 5% FBS), and allowed to attach overnight and then supplemented with an additional 100 μL DMEM. ZNPs encapsulating sgRNA were formulated using the in vitro nanoparticle formulation protocol at the indicated lipid composition and weight ratio (maintaining 50:38.5 (ZAL:cholesterol mole ratio), tuning PEG-lipid additive from 5% to 0.5%, and tuning weight ratio from 20:1 ZAL:sgRNA to 5:1 ZAL:sgRNA). Non-targeting control sgRNA (sgCtrl) was used as a negative control. The nanoparticles were added to the cells at the appropriate dose of sgRNA and incubated with the cells for 48 h. The cell viability and luciferase expression were evaluated with the ONE-Glo+Tox Assay (Promega), normalized to untreated cells (N=4+/−standard deviation).

[2] = test system: A549-Luc cells; assay: Cas9 mRNA delivery: mRNA level (RT-qPCR) and Cas9 protein expression (western blot); assay type: cell-based; settings: for level of Cas9 mRNA: A549 lung cancer cells
Protocol: The cells were lysed in cold RIPA buffer (Thermo Scientific), the lysate cleared by centrifugation and total protein in the supernatant quantified by the BCA assay (Pierce). 50 μg total protein was loaded on 4-20% precast polyacrylamide gel and transferred to a nitrocellulose membrane (BioRad). The membrane was blocked in 5% nonfat milk for 1 hour at RT, and then incubated with primary antibody at 4° C. overnight (Cas9 antibody, 1:1000, Cell Signaling, 14697S; beta-actin antibody, 1:2000, Cell Signaling, 4970). Secondary antibodies were applied at RT for 1 hour (anti-rabbit IgG, HRP-linked antibody, Cell Signaling, 7074, anti-mouse IgG, HRP-linked antibody, Cell Signaling, 7076), and then the membrane was developed and detected on X-ray film.
Cells were transfected with Cas9 mRNA for the indicated time point in a 6-well plate and 0.5 μg/mL mRNA for the indicated time point. Total RNA was extracted using the TRIzol reagent according to the manufacturer's protocol. The RNA was reverse transcribed using the iScript Reverse Transcription kit (BioRad) and the real-time qPCR was run on a Bio-Rad C1000 Touch Thermal Cycler (CFX384 Real-time System). Each reaction was made with iTaq Universal SYBR Green 2× Supermix (Bio-Rad). The qPCR program is as follows:
Human β-actin was used as a control and mRNA levels were normalized to fold actin and plotted as an average of two independent experiments.

[3] = test system: Lox-Stop-Lox tdTomato (tdTO) cassette; assay: In vivo delivery of Cas9 mRNA and sgLoxP (tdTomato activation); design: species or system mice; settings: 5 mg/kg
Protocol: ZA3-Ep10 ZNPs encapsulating Cas9 mRNA and sgLoxp were prepared according to the in vivo nanoparticle formulation protocol using the Nanoassemblr microfluidic mixing device. The lipid mix contained 50 ZA3-Ep10:38.5 cholesterol:0.5 PEG-lipid molar ratios, and the particles were formulated at a 7.5:1 ZAL:total RNA weight ratio. The Cas9 mRNA:sgLoxP weight ratio was maintained at 4:1. […] After which they were sacrificed and the major organs imaged using the IVIS Lumina system for fluorescence expression (dsRed filter set) compared to an uninjected Rosa 26-LSL-tdTomato mouse. A liver specific Cre recombinase adeno-associated virus (Cre-AAV8) injected intravenously via tail vein injection (4 days) was used as a positive control.
Tissue were fixed in 4% paraformaldehyde (PFA) at RT for 2 hours, then changed in 30% sucrose (in PBS) at 4° C. overnight. Then the tissues were embedded in Cryo-gel (Leica Biosystems), and frozen in dry ice. The blocks were sectioned using Cryostat machine (Leica Biosystems) at 8 μm thickness. […]
For detection of Tomato positive populations, primary hepatocytes (2×10^6/mL) were isolated and stained with DAPI (Roche, 2 μg/mL) for dead cell exclusion. Cells were analyzed with BD FACSAria Fusion machine (BD Biosciences). Tomato positive cells were counted in DAPI negative (live cell) populations.

[4] = test system: HeLa-Luc-Cas9 cells; IGROV1 cells; assay: Delivery efficacy of ZA3-Ep10 versus cationic structural analogue (siLuc, sgLuc, Luc mRNA); assay type: cell-based; settings: siRNA, sgRNA and mRNA cargos; 7.5:1 weight ratio
Protocol: The ZNP or LNP formulation was fixed at 7.5:1 weight ratio ZAL or Cationic analogue to RNA. The lipid mixture for the NPs was 50:38.5:0.5 ZAL or cationic analogue: cholesterol: PEG-lipid, while for the A3-Ep14 NPs the zwitterionic phospholipid was titrated from 0 to 50% in the lipid mix. The nanoparticles were formulated by manual mixing using the in vitro formulation protocol. RNA binding was determined by the Ribogreen assay (N=3+/−standard deviation), while nanoparticle size was determined by dynamic light scattering (N=3+/−standard deviation). Luciferase silencing or editing of siLuc and sgLuc NPs was assayed in HeLa-Luc-Cas9 cells (7.35 nM sgRNA, 17.9 nM siRNA), while luciferase expression by Luc mRNA NPs was evaluated in IGROV1 cells (0.77 nM mRNA). Cells were assays after 40 h incubation time by the One-Glo+Tox assay and plotted with viability (dots) and luciferase expression (bars) as mean+/−standard deviation (N=4).

[5] = PEG 2%, 1%, 0.5%, ZAL:sgRNA 20:1, 10:1, 7.5:1, 5:1, 7.4 nM, 48 h

CCCCCCCCC(O)CN(CCC(=O)NCC[N+](C)(C)CCCS(=O)(=O)[O-])CCN(CCN(CC(O)CCCCCCCC)CC(O)CCCCCCCC)CCN(CC(O)CCCCCCCC)CC(O)CCCCCCCC (stereo not shown) [ZA3-Ep10]
formulation with the best luciferase editing [1, 5]: 7.5:1 weight ratio and 0.5% PEG
sgLuc delivery by formulations with tuned PEG content and weight ratio [1, 5]: potent
sgRNA (sgLuc) delivery, rank among lead ZALs ([1]; lead ZALs from the siRNA screen, HeLa-Luc-Cas9 cells, 48 h): most highly potent; also recorded: efficacious
luciferase expression versus sgRNA dose ([1]; sgLuc ZNPs, HeLa-Luc-Cas9 cells): dose-dependent decrease
luciferase silencing ([1]; sgRNA at 14.7 nM and 7.4 nM, 48 h, ZNPs 50:38.5:1 ZAL:cholesterol:PEG-lipid, 20:1 ZAL:sgRNA weight ratio): > 95%
time of highest Cas9 protein expression ([2]; A549 cells, low at 4 h, increased by 12 h): 36 h
level of Cas9 mRNA ([2]; after 4 h incubation): > 4 fold actin
level of Cas9 mRNA ([2]; over the next 45 h): 0.7 fold actin
fluorescent signal 2 months after treatment [3]: significant fluorescent signal in the liver and kidneys
efficacy compared with cationic analogue [4]: outperformed the cationic analogue supplemented with phospholipid
